# Assay results reported in PubChem BioAssay (NCI).
# Values joined by “and” are separate entries in the source; they are usually repeats but may differ in a detail not shown here. Identical values can stand only once.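 Growth conditions: 96-well plates. Treatment: test compound, 48 hours, 5 concentrations. Analysis: linear interpolation between bracketing concentrations; unreached endpoints set to highest concentration. Here, GI50 denotes the concentration required for 50% inhibition of growth. TGI is the concentration that stops growth completely.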
# Tests used:
# Assay in all cases: growth of human tumour cells (NCI), 48 h
# A498 renal = tested on: A498 renal
# LOX IMVI melanoma = tested on: LOX IMVI melanoma
# EKVX NSCLC = tested on: EKVX NSCLC
# OVCAR-3 ovarian = tested on: OVCAR-3 ovarian
# SF-295 CNS = tested on: SF-295 CNS
# UACC-257 melanoma = tested on: UACC-257 melanoma
# RPMI-8226 leukemia = tested on: RPMI-8226 leukemia
# HOP-92 NSCLC = tested on: HOP-92 NSCLC
# TK-10 renal = tested on: TK-10 renal
# SK-MEL-28 melanoma = tested on: SK-MEL-28 melanoma
Compound,GI50 (A498 renal),TGI (A498 renal),GI50 (LOX IMVI melanoma),TGI (LOX IMVI melanoma),GI50 (EKVX NSCLC),TGI (EKVX NSCLC),GI50 (OVCAR-3 ovarian),TGI (OVCAR-3 ovarian),GI50 (SF-295 CNS),TGI (SF-295 CNS),GI50 (UACC-257 melanoma),TGI (UACC-257 melanoma),GI50 (RPMI-8226 leukemia),TGI (RPMI-8226 leukemia),GI50 (HOP-92 NSCLC),TGI (HOP-92 NSCLC),GI50 (TK-10 renal),TGI (TK-10 renal),GI50 (SK-MEL-28 melanoma),TGI (SK-MEL-28 melanoma)
CCN(CC)CCCC(C)Nc1cnc(C(=O)Nc2cc(F)cc3cccnc23)cn1 (configuration not stated),2720 nM and 1600 nM,14.5 µM and 3.24 µM,3320 nM and 882 nM,11.3 µM and 2.28 µM,10.2 µM and 1.22 µM,22.1 µM and 2.51 µM,2.14 µM and 0.349 µM,6.79 µM and 1.23 µM,12700 nM and 1810 nM,26.4 µM and 3.33 µM,1990 nM and 563 nM,4.13 µM and 1.94 µM,2970 nM and 502 nM,12.2 µM and > 20.5 µM,2430 nM and 1190 nM,14.5 µM and 2.62 µM,10.4 µM and 1.54 µM,22.4 µM and 3.12 µM,1.84 µM and 1.22 µM,3.53 µM and 2.5 µM
CCS(=O)(=O)c1ccc(OC)c(Nc2nccc(N(C)c3ccc4c(C)[nH]nc4c3)n2)c1,1180 nM,6.58 µM,4290 nM,12 µM,6.85 µM,> 25 µM,7.42 µM,> 25 µM,4170 nM,10.4 µM,7570 nM,> 24 µM,8350 nM,> 25 µM,622 nM,3.64 µM,5.15 µM,14.5 µM,6.8 µM,> 25 µM
O=C(Nc1nccs1)c1cc(C2=CC=CC([N+](=O)[O-])C=C2)nc(=S)[nH]1 (configuration not stated),–,> 100 µM,–,> 100 µM,–,> 100 µM,–,> 100 µM,–,> 100 µM,–,> 100 µM,–,> 100 µM,–,> 100 µM,–,> 100 µM,–,> 100 µM
CCOC(=O)C(Cc1c[nH]c2cc([N+](=O)[O-])ccc12)(NC(C)=O)C(=O)OCC,55300 nM,203 µM,> 766000 nM,> 1000 µM,59 µM,> 614 µM,> 1000 µM,> 1000 µM,57900 nM and 56900 nM,> 478 µM,–,> 1000 µM,45000 nM,–,47500 nM,141 µM,296 µM,> 760 µM,> 1000 µM,> 1000 µM
O=C1C(Cl)=C(N2CCOCC2)C(=O)c2ccccc21,11200 nM,24.3 µM,3010 nM,13.6 µM,3.75 µM,14.3 µM,2.04 µM,3.58 µM,19200 nM,36.7 µM,1620 nM,3.03 µM,2630 nM,7.87 µM,1520 nM,3 µM,16.7 µM,30.4 µM,2.69 µM,6.32 µM
CCc1ccc(CCC(=O)Nc2ncc(Cc3ccccc3)s2)o1,1290 nM,8.87 µM,6000 nM,> 100 µM,4.6 µM,> 100 µM,2.67 µM,21.6 µM,3290 nM,> 100 µM,> 100000 nM,> 100 µM,2610 nM,> 100 µM,18300 nM,> 100 µM,23 µM,> 100 µM,9.11 µM,> 100 µM
O[C@]12CCCC[C@H]1CCC2,–,> 100 µM,–,> 100 µM,–,> 100 µM,–,> 100 µM,–,> 100 µM,–,> 100 µM,–,> 100 µM,–,> 100 µM,–,> 100 µM,–,> 100 µM
C=C1C(=O)O[C@@H]2C[C@@H](C)[C@@H]3[C@@H](OC4OC(COC(C)=O)C(O)C(O)C4O)CC(=O)[C@@]3(C)C[C@H]12 (some centres not stated),–,30.1 µM,–,1.78 µM,–,7.6 µM,–,3.46 µM,–,31.3 µM,–,3.49 µM,–,8.53 µM,–,2.15 µM,–,3.36 µM,–,6.27 µM
CN(C)CCCn1c2c3ccccc3ccc2c2oc(=O)c3ccccc3c21,–,28.6 µM,–,13.3 µM,–,60.7 µM,–,9.22 µM,–,7.17 µM,–,19.1 µM,–,14 µM,–,45.7 µM,–,23 µM,–,12.3 µM
O=C(Nc1ccc2oc(=O)c(C(=O)O)cc2c1)Oc1ccccc1,–,> 100 µM,–,> 100 µM,–,> 100 µM,–,> 100 µM,–,> 100 µM,–,> 100 µM,–,> 100 µM,–,> 100 µM,–,> 100 µM,–,> 100 µM
C=C(CN1CCN(c2ccccc2F)CC1)c1ccc(C(=O)Nc2ccccc2N)cc1,2510 nM,22.9 µM,1530 nM,24.4 µM,4.67 µM,> 100 µM,2.14 µM,7.82 µM,2380 nM,18 µM,992 nM,35.3 µM,1160 nM,3.78 µM,611 nM,5.55 µM,1.7 µM,59.8 µM,2.57 µM,53.9 µM
CC1OC(OC2C(Oc3cc(O)c4c(=O)cc(-c5ccc(O)cc5)oc4c3)OC(CO)C(O)C2O)C(O)C(O)C1O (configuration not stated),–,> 100 µM,–,> 100 µM,–,> 100 µM,–,> 100 µM,–,> 100 µM,–,> 100 µM,–,> 100 µM,–,> 100 µM,–,> 100 µM,–,> 100 µM
Cc1cc2c(C(N)=O)cccc2n1-c1nc2c(c(NCc3ccccc3)n1)CCCN2,212 nM,0.362 µM,51.7 nM,0.206 µM,0.256 µM,0.63 µM,0.206 µM,0.41 µM,174 nM,0.352 µM,167 nM,0.347 µM,40.1 nM,0.325 µM,261 nM,0.541 µM,0.378 µM,0.809 µM,0.246 µM,0.593 µM
COc1ccc(C(=O)c2cc(OC)c(OC)c(OC)c2)cc1O,1400 nM,5.7 µM,11.4 nM,> 100 µM,0.791 µM,> 100 µM,0.0207 µM,0.0511 µM,367 nM,> 100 µM,> 100000 nM,> 100 µM,34.2 nM,> 64.9 µM,539 nM,> 100 µM,> 61.5 µM,> 100 µM,> 80.8 µM,> 100 µM
Cc1ccc(C(=O)N/N=C/c2cccc(Oc3ccccc3)c2)cn1,9990 nM,> 100 µM,8540 nM,> 100 µM,8.36 µM,> 100 µM,5.96 µM,> 100 µM,3360 nM,> 36.5 µM,> 56300 nM,> 100 µM,2660 nM,8.58 µM,12700 nM,> 100 µM,14.4 µM,> 100 µM,27.3 µM,> 100 µM
Cc1ccc(NS(=O)(=O)c2cc(C)ccc2C)cc1,2540 nM,15.4 µM,5130 nM,22.5 µM,11.8 µM,92.7 µM,2.53 µM,7.12 µM,2620 nM,19.8 µM,10200 nM,47.4 µM,12700 nM,> 100 µM,12900 nM,34.6 µM,10.2 µM,37.7 µM,10.7 µM,37.3 µM
Cc1c(C(=O)CC(=O)C(=O)Nc2cccc(C(F)(F)F)c2)[n+](=O)c2ccccc2n1[O-],–,35.8 µM,–,12.7 µM,–,20.3 µM,–,4.92 µM,–,23.4 µM,–,6.73 µM,–,11.7 µM,–,38.9 µM,–,79.7 µM,–,27.2 µM
Cc1nc(Nc2ccc(F)c(Cl)c2)sc1C(=O)O,1640 nM,4.16 µM,1510 nM,2.91 µM,0.865 µM,5.76 µM,1.82 µM,4.47 µM,1490 nM,3.15 µM,1780 nM,3.36 µM,2160 nM,6.22 µM,877 nM,2.74 µM,1.96 µM,4.09 µM,1.77 µM,3.68 µM
O=C(N/N=C/c1ccc(O)cc1O)c1ccc(Nc2ccnc(C(F)(F)F)c2)cc1,> 41300 nM,97.4 µM,8310 nM,> 100 µM,8.91 µM,> 75.1 µM,0.35 µM,> 100 µM,–,23.3 µM,> 100000 nM,> 100 µM,> 100000 nM,> 100 µM,15000 nM,> 75.6 µM,2.06 µM,> 47.1 µM,7.5 µM,> 100 µM
Cc1cc2c(c(C#N)c1C)NC(=O)C(CC(=O)O)C2=O (configuration not stated),–,> 100 µM,–,> 100 µM,–,> 100 µM,–,> 100 µM,–,> 100 µM,–,> 100 µM,–,> 100 µM,–,> 100 µM,–,> 100 µM,–,> 100 µM
c1cncc(CNc2ccccc2-c2nnc(Nc3ccc4c(c3)OCCO4)o2)c1,138 nM,1.8 µM,183 nM,> 100 µM,0.609 µM,> 100 µM,0.0452 µM,0.228 µM,93.6 nM,> 100 µM,11600 nM,> 100 µM,280 nM,17.7 µM,222 nM,20 µM,17 µM,> 100 µM,0.145 µM,> 100 µM
COc1cc2c(OC)c(c1)CCCC1=CC(=O)C=C(CCC2)C1=O,–,> 100 µM,–,31.1 µM,–,> 87.4 µM,–,55.1 µM,–,> 100 µM,–,> 100 µM,–,25.9 µM,–,36.6 µM,–,> 100 µM,–,> 100 µM
CC1(C)N=C(N)N=C(N)N1c1cccc(CCCCc2ccc(S(=O)(=O)F)cc2Cl)c1,> 48200 nM,> 100 µM,1340 nM,> 41.7 µM,2.02 µM,> 67.5 µM,5.37 µM,34.1 µM,2440 nM,> 38.8 µM,2150 nM,20.8 µM,10800 nM,41.9 µM,14000 nM,47.8 µM,8.66 µM,> 100 µM,8.62 µM,22 µM
COc1cccc(/C=C/C(=O)c2cc3c(N)c(C(=O)Nc4cccc(Cl)c4C)sc3nc2C)c1,897 nM,3.07 µM,676 nM,1.45 µM,2.61 µM,> 31.8 µM,0.854 µM,2 µM,1500 nM,9.56 µM,3480 nM,20.9 µM,257 nM,1.57 µM,1040 nM,3.16 µM,1.53 µM,8.19 µM,1.26 µM,4.7 µM
